Molecules are shown by their SMILES. Where only a bound is given, the exact number is not on record here.

For orientation: IC50 means the point on the concentration scale where inhibition reaches its midpoint. By EC50 is commonly meant the concentration needed to bring the measured effect to its halfway point.

In test [1] the target is PI3 kinase alpha (Homo sapiens, UniProt P42336). Briefly: PI3K ATP depletion assay (Biological Method 1, Assay 3; KinaseGlo luminescence). The test is classed as biochemical. Particulars: ATP depletion assay; read-out: PI3 Kinase Alpha, IC50. The gist of the method: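 Compound in DMSO was mixed with 10 nM PI3 kinase and 5 μg/mL phosphatidylinositol, and the reaction was started with 2 μM ATP. It ran to about 50% ATP depletion and was stopped with KinaseGlo.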

The subject of test [2] is pSer473 Akt in A2780 cells. In words: pSer473 Akt assay to monitor PI3K pathway in A2780 cells (Biological Method 2, MSD). Conditions: Homo sapiens; inhibition of Akt phosphorylation, A2780 cells. The test is classed as cell-based. As to the method: In this method, an assay for measuring the PI3K-mediated pSer473-Akt status after treatment with representative inhibitor compounds of the invention is described.
A2780 cells were cultured in DMEM supplemented with 10% FBS. L-glutamine, sodium pyruvate, and antibiotics. Cells were plated in the same medium at a density of 15,000 cells per well into 96 well tissue culture plates, with outside wells vacant, and allowed to adhere overnight.
Test compounds supplied in DMSO were diluted further into DMSO at 500 times the desired final concentrations before dilution into culture media to 2 times the final concentrations. Equal volumes of 2× compounds were added to the cells in 96 well plates and incubated at 37° C. for one hour. The media and compounds were then removed, the plates chilled and cells lysed in a lysis buffer (150 mM NaCl, 20 mM Tris pH 7.5, 1 mM EDTA, 1 mM EGTA, 1% Triton X-100) supplemented with phosphatase and protease inhibitors. After thorough mixing, lysates were transferred to both pSer473Akt and total Akt assay plates from Meso Scale Discovery (MSD), and incubated overnight with shaking at 4° C.
The assays were read on a SECTOR Imager 6000 instrument (Meso Scale Discovery). Ratios of the signal from pSer473Akt and total Akt assays were used to correct for any variability and the percent inhibition of pSer473Akt from the total signal seen in cells treated with compound versus DMSO alone was calculated and used to determine EC50 values for each compound.

Test [3] has as its system A2780 ovarian cancer cells. Briefly: Cellular proliferation in A2780 cells, Cell Titer Glo (Biological Method 4). The test is classed as cell-based. Particulars: Homo sapiens; ovarian cancer cell line A2780. The gist of the method:
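Viability after 72 h compound exposure (37 °C, 5% CO2) was read by Cell Titer Glo and an EC50 derived, each condition in duplicate. A2780 ovarian cells had been plated at 1,000 per well in DMEM/10% FBS at least 2 h beforehand.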
Background: ATP-based viability assays read luminescence as a measure of living cells.

PI3 kinase alpha, sequence (P42336 whole entry): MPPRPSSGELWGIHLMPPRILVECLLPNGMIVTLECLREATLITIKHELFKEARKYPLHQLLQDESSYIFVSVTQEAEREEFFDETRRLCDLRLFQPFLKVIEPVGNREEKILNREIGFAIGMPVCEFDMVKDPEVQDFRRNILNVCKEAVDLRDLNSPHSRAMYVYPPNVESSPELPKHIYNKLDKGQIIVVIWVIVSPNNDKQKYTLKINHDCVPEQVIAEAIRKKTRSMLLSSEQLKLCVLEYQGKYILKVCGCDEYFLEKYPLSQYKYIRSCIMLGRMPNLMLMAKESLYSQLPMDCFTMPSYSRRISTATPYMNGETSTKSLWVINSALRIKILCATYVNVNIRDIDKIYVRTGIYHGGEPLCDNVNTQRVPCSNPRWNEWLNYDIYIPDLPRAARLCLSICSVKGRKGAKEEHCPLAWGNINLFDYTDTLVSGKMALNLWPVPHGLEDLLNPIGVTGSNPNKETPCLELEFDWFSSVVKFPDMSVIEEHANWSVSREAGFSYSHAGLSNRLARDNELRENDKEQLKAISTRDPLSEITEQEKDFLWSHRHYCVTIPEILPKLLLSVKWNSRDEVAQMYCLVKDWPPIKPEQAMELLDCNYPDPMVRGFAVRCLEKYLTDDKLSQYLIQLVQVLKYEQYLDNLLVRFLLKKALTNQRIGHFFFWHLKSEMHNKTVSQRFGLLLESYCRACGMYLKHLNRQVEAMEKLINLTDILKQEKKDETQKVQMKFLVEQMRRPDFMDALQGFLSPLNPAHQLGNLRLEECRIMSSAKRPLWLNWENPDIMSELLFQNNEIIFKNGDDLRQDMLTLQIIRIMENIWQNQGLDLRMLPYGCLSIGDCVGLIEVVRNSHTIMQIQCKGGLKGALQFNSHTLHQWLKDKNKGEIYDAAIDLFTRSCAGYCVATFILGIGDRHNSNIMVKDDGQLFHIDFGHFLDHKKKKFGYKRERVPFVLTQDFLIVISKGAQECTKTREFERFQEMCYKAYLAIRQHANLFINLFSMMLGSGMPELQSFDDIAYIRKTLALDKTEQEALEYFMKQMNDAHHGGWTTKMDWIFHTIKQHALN
PI3 kinase alpha, sequence (P27986 whole entry partner): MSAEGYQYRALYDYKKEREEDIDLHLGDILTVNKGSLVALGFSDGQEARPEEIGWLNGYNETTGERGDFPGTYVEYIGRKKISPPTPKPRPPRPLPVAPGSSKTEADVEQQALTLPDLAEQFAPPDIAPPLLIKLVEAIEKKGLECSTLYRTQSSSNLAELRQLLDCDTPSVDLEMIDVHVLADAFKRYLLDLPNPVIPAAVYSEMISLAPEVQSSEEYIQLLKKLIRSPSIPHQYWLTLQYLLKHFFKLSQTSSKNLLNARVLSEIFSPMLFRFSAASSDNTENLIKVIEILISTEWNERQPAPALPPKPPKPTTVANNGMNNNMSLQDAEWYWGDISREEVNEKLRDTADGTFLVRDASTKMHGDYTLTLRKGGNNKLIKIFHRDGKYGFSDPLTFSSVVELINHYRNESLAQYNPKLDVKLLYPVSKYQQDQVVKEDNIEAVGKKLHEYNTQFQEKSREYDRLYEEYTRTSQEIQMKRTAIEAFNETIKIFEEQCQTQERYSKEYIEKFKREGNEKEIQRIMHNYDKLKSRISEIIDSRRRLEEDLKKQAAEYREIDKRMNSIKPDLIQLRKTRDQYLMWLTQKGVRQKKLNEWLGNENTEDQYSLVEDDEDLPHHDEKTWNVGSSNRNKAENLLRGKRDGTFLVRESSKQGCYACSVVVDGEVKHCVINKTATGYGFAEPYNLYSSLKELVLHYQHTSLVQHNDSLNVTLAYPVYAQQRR

Regarding `CS(=O)(=O)Nc1ncccc1-c1cc(-c2ccc(N)nc2)nc(N2CCOCC2)n1` [Compound 3], the IC50 in test [1] was under 1000 nM. In addition, the EC50 in test [2] and in test [3] was under 1000 nM in each case.
With `Nc1cc(F)c(-c2cc(Nc3cnc4ccccc4c3)nc(N3CCOCC3)n2)cn1` [Compound 4], the IC50 in test [1] is under 1000 nM. In addition, the EC50 in test [2] and in test [3] was under 1000 nM in each case.
Take `COc1cccc2ncc(Nc3cc(-c4cnc(N)nc4)nc(N4CCOCC4)n3)cc12` [Compound 7]: the 50% inhibitory concentration (IC50) in test [1] is under 1000 nM. Moreover, the EC50 in test [2] and in test [3] was under 1000 nM throughout.
For `Nc1ncc(-c2cc(Oc3cccnc3)nc(N3CCOCC3)n2)cn1` [Compound 8], in test [1], the IC50 was under 1000 nM. The EC50 in test [2] and in test [3] was under 1000 nM throughout.
Regarding `Nc1ncc(-c2cc(Nc3ccc(N4CCNCC4)nc3)nc(N3CCOCC3)n2)cn1` [Compound 9], the IC50 in test [1] was under 1000 nM. For the same compound, the EC50 in test [2] and in test [3] was under 1000 nM each time.
On to `CC(C)N1CCC(Oc2ccc(Nc3cc(-c4cnc(N)cc4C(F)(F)F)nc(N4CCOCC4)n3)cn2)CC1` [Compound 11], for which the IC50 in test [1] is under 1000 nM. The EC50 in test [2] and in test [3] was under 1000 nM in each case.
With `CCN(CC)Cc1cnc(Nc2cc(-c3cnc(N)cc3C(F)(F)F)nc(N3CCOCC3)n2)s1` [Compound 12], the IC50 in test [1] is under 1000 nM. Besides, the values for the EC50 in test [2] and in test [3] were under 1000 nM and under 10000 nM, respectively.
`CCN(CC)CCc1csc(Nc2cc(-c3cnc(N)cc3C(F)(F)F)nc(N3CCOCC3)n2)n1` [Compound 13]: the 50% inhibitory concentration (IC50) in test [1] was under 1000 nM. In addition, the EC50 in test [2] and in test [3] was under 1000 nM throughout.
As to `Nc1ncc(-c2cc(N3CCOC(c4ccccc4)C3)nc(N3CCOCC3)n2)cn1` (centres unmarked) [Compound 15], the IC50 in test [1] was under 1000 nM. Also, the EC50 in test [2] and in test [3] was under 1000 nM each time.
Take `Nc1cc(C(F)(F)F)c(-c2cc(OC3CCOCC3)nc(N3CCOCC3)n2)cn1` [Compound 24]: the IC50 in test [1] is under 1000 nM. Also, the EC50 in test [2] and in test [3] was under 1000 nM in each case.
As for `Nc1cc(C(F)(F)F)c(-c2cc(O[C@@H]3CCOC3)nc(N3CCOCC3)n2)cn1` [Compound 25], in test [1], the IC50 was under 1000 nM. The 50% effective concentration (EC50) in test [2] is under 1000 nM; in test [3] it was under 10000 nM.
For `CC(C)(C)OC(=O)N1CCC(Oc2cc(-c3cnc(N)nc3C(F)(F)F)nc(N3CCOCC3)n2)CC1` [Compound 27], in test [1], the IC50 was under 1000 nM. For the same compound, the EC50 in test [2] and in test [3] was under 1000 nM each time.
As for `CC(C)(C)OC(=O)N1CCC(Oc2cc(-c3cnc(N)nc3N)nc(N3CCOCC3)n2)CC1` [Compound 28], in test [1], the IC50 was under 1000 nM. The EC50 in test [2] and in test [3] was under 1000 nM in each case.
Consider `CC(=O)N1CCC[C@@H](Oc2cc(-c3cnc(N)nc3N)nc(N3CCOCC3)n2)C1` [Compound 29], for which the IC50 in test [1] is under 1000 nM. In addition, the EC50 in test [2] and in test [3] was under 1000 nM throughout.
As to `CC(=O)N1CCC(Oc2cc(-c3cnc(N)[nH]c3=O)nc(N3CCOCC3)n2)CC1` [Compound 30], in test [1], the IC50 is under 1000 nM. Besides, the EC50 in test [2] and in test [3] was under 1000 nM in each case.
Take `COC(=O)N1CCC(Oc2cc(-c3cnc(N)[nH]c3=O)nc(N3CCOCC3)n2)CC1` [Compound 31]: in test [1], the IC50 was under 1000 nM. Besides, the EC50 in test [2] and in test [3] was under 1000 nM each time.
In the case of `CC(C)OC(=O)N1CCC(Oc2cc(-c3cnc(N)[nH]c3=O)nc(N3CCOCC3)n2)CC1` [Compound 32], the 50% inhibitory concentration (IC50) in test [1] was under 1000 nM. The EC50 in test [2] and in test [3] was under 1000 nM throughout.
As to `Nc1ncc(-c2cc(Nc3ccncc3)nc(N3CCOCC3)n2)c(C(F)(F)F)n1` [Compound 33], in test [1], the IC50 is under 1000 nM. The EC50 in test [2] and in test [3] was under 1000 nM throughout.
Regarding `Nc1ncc(-c2cc(OC3CCN(C(=O)OCc4ccccc4)CC3)nc(N3CCOCC3)n2)c(=O)[nH]1` [Compound 34], the IC50 in test [1] is under 1000 nM. Also, the EC50 in test [2] and in test [3] was under 1000 nM throughout.
For the compound `CN1CCC(Oc2ccc(Nc3cc(-c4cnc(N)nc4)nc(N4CCOCC4)n3)cn2)C1` (centres unmarked) [Compound 35], the IC50 in test [1] is under 1000 nM. Further, the EC50 in test [2] and in test [3] was under 1000 nM each time.
For `CN(C)CCOc1ccc(Nc2cc(-c3cnc(N)nc3)nc(N3CCOCC3)n2)cn1` [Compound 36], the IC50 in test [1] was under 1000 nM. For the same compound, the EC50 in test [2] and in test [3] was under 1000 nM in each case.
In the case of `Nc1ncc(-c2cc(Nc3ccc4nccnc4c3)nc(N3CCOCC3)n2)cn1` [Compound 38], in test [1], the IC50 is under 1000 nM. Further, the EC50 in test [2] and in test [3] was under 1000 nM each time.
For `Nc1ncc(-c2cc(O[C@H]3CCOC3)nc(N3CCOCC3)n2)c(=O)[nH]1` [Compound 39], the IC50 in test [1] is under 1000 nM. Moreover, the EC50 in test [2] and in test [3] was under 1000 nM throughout.
Regarding `CCN(CC)Cc1cnc(Nc2cc(-c3cnc(N)nc3C(F)(F)F)nc(N3CCOCC3)n2)s1` [Compound 40], the IC50 in test [1] is under 1000 nM. For the same compound, the EC50 in test [2] and in test [3] was under 1000 nM throughout.
Turning to `CC(C)N1CCC(Oc2ccc(Nc3cc(-c4cnc(N)nc4C(F)(F)F)nc(N4CCOCC4)n3)cn2)CC1` [Compound 41], the IC50 in test [1] is under 1000 nM. The concentration giving a half-maximal response (EC50) in test [2] and in test [3] was under 1000 nM throughout.
As for `Cc1c(Nc2ccc(OC3CCN(C)CC3)nc2)nc(N2CCOCC2)nc1-c1cnc(N)nc1` [Compound 42], in test [1], the IC50 is under 1000 nM. Moreover, the EC50 in test [2] and in test [3] was under 1000 nM in each case.
As for `Nc1ncc(-c2cc(Nc3ccncc3C(F)(F)F)nc(N3CCOCC3)n2)cn1` [Compound 43], the IC50 in test [1] was under 1000 nM. Also, the EC50 in test [2] and in test [3] was under 1000 nM in each case.
In the case of `Nc1ncc(-c2cc(Nc3ccncc3)nc(N3CCOCC3)n2)cn1` [Compound 44], in test [1], the IC50 was under 1000 nM. For the same compound, the EC50 in test [2] and in test [3] was under 1000 nM throughout.
For `Nc1ncc(-c2cc(Nc3ccc4ncccc4c3)nc(N3CCOCC3)n2)cn1` [Compound 46], in test [1], the IC50 was under 1000 nM. In addition, the EC50 in test [2] and in test [3] was under 1000 nM each time.
`Nc1ncc(-c2cc(OC3CCN(C(=O)OC4CCCC4)CC3)nc(N3CCOCC3)n2)c(=O)[nH]1` [Compound 47]: in test [1], the IC50 was under 1000 nM. Moreover, the EC50 in test [2] and in test [3] was under 1000 nM throughout.
Take `Nc1ncc(-c2cc(OC3CCN(C(=O)c4ccccc4)CC3)nc(N3CCOCC3)n2)c(=O)[nH]1` [Compound 48]: the IC50 in test [1] is under 1000 nM. The EC50 in test [2] and in test [3] was under 1000 nM each time.
As for `CC(C)C(=O)N1CCC(Oc2cc(-c3cnc(N)[nH]c3=O)nc(N3CCOCC3)n2)CC1` [Compound 49], in test [1], the IC50 is under 1000 nM. Also, the EC50 in test [2] and in test [3] was under 1000 nM throughout.
Turning to `Nc1ncc(-c2cc(OC3CCOCC3)nc(N3CCOCC3)n2)c(=O)[nH]1` [Compound 50], the IC50 in test [1] is under 1000 nM. Also, the half-maximal effective concentration (EC50) in test [2] and in test [3] was under 1000 nM each time.
Consider `CN1CCN(c2ccc(Nc3cc(-c4cnc(N)nc4)nc(N4CCOCC4)n3)cn2)CC1` [Compound 51], for which, in test [1], the IC50 is under 1000 nM. Moreover, the EC50 in test [2] and in test [3] was under 1000 nM throughout.
As to `Cc1cc(Nc2cc(-c3cnc(N)nc3C(F)(F)F)nc(N3CCOCC3)n2)ccn1` [Compound 52], the IC50 in test [1] was under 1000 nM. Also, the EC50 in test [2] and in test [3] was under 1000 nM in each case.
With `Nc1cc(Cl)c(-c2cc(N3CCOCC3)nc(N3CCOCC3)n2)cn1` [Compound 114], the concentration giving a half-maximal response (EC50) was under 1000 nM in test [2] and under 10000 nM in test [3].
On to `Nc1ncc(-c2ccnc(N3CCOCC3)n2)cn1` [Compound 132], for which the concentration giving a half-maximal response (EC50) in test [2] was under 1000 nM; in test [3] it was under 10000 nM.
`Nc1ncc(-c2cc(Nc3cnc4ccccc4c3)nc(N3CCOCC3)n2)c(N)n1` [Compound 147]: the EC50 in test [2] and in test [3] was under 1000 nM each time.
On to `N#Cc1cc(N)ncc1-c1cc(N2CCOCC2)nc(N2CCOCC2)n1` [Compound 162], for which the concentration giving a half-maximal response (EC50) in test [2] and in test [3] was under 1000 nM in each case.
In the case of `Nc1cc(Cl)c(-c2cc(Nc3cnc4ccccc4c3)nc(N3CCOCC3)n2)cn1` [Compound 175], the concentration for a half-maximal effect (EC50) in test [2] and in test [3] was under 1000 nM each time.
In the case of `Nc1ncc(-c2cc(Nc3cnc4ccccc4c3)nc(N3CCOCC3)n2)c(C(F)(F)F)n1` [Compound 192], the EC50 in test [2] and in test [3] was under 1000 nM in each case.
As for `Nc1cc(C(F)(F)F)c(-c2cc(Nc3cnc4ccccc4c3)nc(N3CCOCC3)n2)cn1` [Compound 193], the concentration for a half-maximal effect (EC50) in test [2] and in test [3] was under 1000 nM each time.
